For 22 compounds, EC50 and IC50 results are on record in patent publication US6872805B2 (Bristol-Myers Squibb Company, priority 2000, dated 2005).

The test system of experiment [1] is HCV replicon in Huh7 cells. The experiment is described as follows: HCV replicon cell-based assay. Set-up: species or system HCV strain 1B. As to conditions: Hepatitis C virus, Huh-7, 96 h; HCV replicon, Huh7 cells, 4 days; activity ranges; read-out: EC50. The method in brief:
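Genotype 1b subgenomic replicon Huh7 cells exposed to compound 4 days at 37° C in 4% FCS, 0.5% DMSO medium. EC50 from TaqMan RT-PCR of HCV RNA, normalized to total RNA by RiboGreen; CC50 from alamar Blue fluorescence after 4 h.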
On the technique in general: In antiviral work, replicon cells carry a viral genome segment that copies itself.

For experiment [2], the target named is HCV NS3/4A protease complex (Hepatitis C virus genotype 1a, UniProt P27958, C1454S/C1711G). The experiment is described as follows: Recombinant HCV NS3/4A protease complex FRET peptide assay (strain not stated). It counts as biochemical. As to conditions: IC50, NS3/4A protease enzyme assay, strain not stated; activity ranges.
HCV NS3/4A protease complex, sequence (P27958 1027-1711, stated change not applied): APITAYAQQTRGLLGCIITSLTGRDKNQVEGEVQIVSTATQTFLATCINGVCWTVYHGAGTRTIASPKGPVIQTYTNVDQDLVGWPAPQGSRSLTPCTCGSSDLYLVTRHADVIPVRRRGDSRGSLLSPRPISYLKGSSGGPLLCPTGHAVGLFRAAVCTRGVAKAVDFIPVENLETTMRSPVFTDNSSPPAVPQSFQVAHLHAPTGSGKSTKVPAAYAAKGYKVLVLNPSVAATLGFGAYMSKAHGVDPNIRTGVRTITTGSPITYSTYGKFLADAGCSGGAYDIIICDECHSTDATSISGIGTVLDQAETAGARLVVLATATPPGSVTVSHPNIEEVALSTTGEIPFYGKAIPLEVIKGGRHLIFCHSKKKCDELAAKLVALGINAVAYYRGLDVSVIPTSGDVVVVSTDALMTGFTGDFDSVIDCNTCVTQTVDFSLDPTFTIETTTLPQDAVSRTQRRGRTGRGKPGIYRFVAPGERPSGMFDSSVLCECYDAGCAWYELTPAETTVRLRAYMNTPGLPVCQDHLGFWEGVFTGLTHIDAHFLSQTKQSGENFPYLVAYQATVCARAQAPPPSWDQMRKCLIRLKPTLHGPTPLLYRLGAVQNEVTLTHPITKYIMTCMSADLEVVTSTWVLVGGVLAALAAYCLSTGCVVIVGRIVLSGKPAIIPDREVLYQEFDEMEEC
HCV NS3/4A protease complex, sequence (P27958 1027-1711, stated change not applied): as above

One may read the EC50 as the midpoint of the concentration-response curve. For orientation: IC50 means the concentration that inhibits the measured activity by half. Regarding `C=CC1C[C@]1(NC(=O)[C@@H]1C[C@@H](Oc2cc(-c3ccccc3)nc3cc(OC)ccc23)CN1C(=O)C(NC(=O)OC(C)(C)C)C(C)(C)C)C(=O)NS(=O)(=O)c1ccccc1C` (some centres unmarked) [Compound 63], the EC50 in experiment [1] is below 500 nM. Also, in experiment [2], the IC50 is below 50 nM.

Consider `COc1ccc2c(O[C@@H]3C[C@@H](C(=O)NC4(C(=O)NS(=O)(=O)C5CC5)CC4)N(C(=O)[C@@H](NC(=O)OC(C)(C)C)C(C)(C)C)C3)cc(-c3ccccc3)nc2c1` [Compound 67], for which the EC50 in experiment [1] is below 5000 nM. Further, the IC50 in experiment [2] is below 50 nM.

For `CCC(C)[C@H](NC(=O)OC(C)(C)C)C(=O)N1C[C@H](Oc2cc(-c3ccccc3)nc3cc(OC)ccc23)C[C@H]1C(=O)NC1(C(=O)NS(=O)(=O)C2CC2)CC1` (some centres unmarked) [Compound 68], the half-maximal effective concentration (EC50) in experiment [1] was below 5000 nM. Further, in experiment [2], the IC50 was below 50 nM.

On to `C=CC1CC1(NC(=O)OC(C)(C)C)C(=O)N1C[C@H](Oc2cc(-c3ccccc3)nc3cc(OC)ccc23)C[C@H]1C(=O)N[C@]1(C(=O)NS(=O)(=O)C2CC2)CC1CC` (some centres unmarked) [Compound 69], for which the EC50 in experiment [1] was below 500 nM. Also, in experiment [2], the IC50 is below 500 nM.

With `C=CC1C[C@]1(NC(=O)[C@@H]1C[C@@H](Oc2cc(-c3ccccc3)nc3cc(OC)ccc23)CN1C(=O)[C@@H](NC(=O)OC(C)(C)C)C(C)C)C(=O)NS(=O)(=O)C1CCC1` (some centres unmarked) [Compound 71], the EC50 in experiment [1] was below 50 nM. Besides, in experiment [2], the IC50 was below 50 nM.

Turning to `C=CC1C[C@]1(NC(=O)[C@@H]1C[C@@H](Oc2cc(-c3ccccc3)nc3cc(OC)ccc23)CN1C(=O)[C@@H](NC(=O)OC(C)(C)C)C1CCCC1)C(=O)NS(=O)(=O)C1CCC1` (some centres unmarked) [Compound 72], the EC50 in experiment [1] was below 500 nM. The IC50 in experiment [2] is below 500 nM.

For the compound `C=CC1CC1(NC(=O)[C@@H]1C[C@@H](Oc2cc(-c3ccccc3)nc3cc(OC)ccc23)CN1C(=O)[C@@H](NC(=O)OC(C)(C)C)C(C)(C)C)C(=O)NS(C)(=O)=O` (some centres unmarked) [Compound 86], in experiment [1], the EC50 was below 500 nM. In experiment [2], the IC50 was below 50 nM.

Turning to `C=CC1CC1(NC(=O)[C@@H]1C[C@@H](Oc2cc(-c3ccccc3)nc3cc(OC)ccc23)CN1C(=O)[C@@H](NC(=O)OC(C)(C)C)C(C)C)C(=O)NS(C)(=O)=O` (some centres unmarked) [Compound 89], the EC50 in experiment [1] is below 5000 nM. For the same compound, in experiment [2], the IC50 is below 500 nM.

For `C=CC1CC1(NC(=O)[C@@H]1C[C@@H](Oc2cc(-c3ccccc3)nc3cc(OC)ccc23)CN1C(=O)[C@@H](NC(=O)OC(C)(C)C)C(C)(C)C)C(=O)NS(=O)(=O)C1CC1` (some centres unmarked) [Compound 91], the EC50 in experiment [1] is below 50 nM. For the same compound, the IC50 in experiment [2] was below 50 nM.

Take `C=C[C@@H]1C[C@]1(NC(=O)C1C[C@@H](Oc2cc(-c3ccccc3)nc3cc(OC)ccc23)CN1C(=O)[C@@H](NC(C)=O)C(C)(C)C)C(=O)NS(=O)(=O)C1CC1` (stereo partly drawn) [Compound 98, 1-(2S-Acetylamino-3,3-dimethyl-butyryl)-4R-(7-methoxy-2-phenyl-quinolin-4-yloxy)-pyrrolidine-2S-carboxylic acid (1R-cyclopropanesulfonylaminocarbonyl-2S-vinyl-cyclopropyl)amide]: the EC50 in experiment [1] was below 500 nM. Also, the IC50 in experiment [2] is below 50 nM.

Consider `C=C[C@@H]1C[C@]1(NC(=O)C1C[C@@H](Oc2cc(-c3ccccc3)nc3cc(OC)ccc23)CN1C(=O)[C@@H](NC(=O)C(F)(F)F)C(C)(C)C)C(=O)NS(=O)(=O)C1CC1` (stereo partly drawn) [Compound 99, 1-[3,3-dimethyl-2S-(2,2,2-trifluoro-acetylamino)-butyryl]-4R-(7-methoxy-2-phenylquinolin-4-yloxy)pyrrolidine-2S-carboxylic acid(1R-cyclopropanesulfonylaminocarbonyl-2S-vinylcyclopropyl)amide], for which the EC50 in experiment [1] is below 500 nM. In experiment [2], the IC50 was below 50 nM.

As for `C=C[C@@H]1C[C@]1(NC(=O)C1C[C@@H](Oc2cc(-c3ccccc3)nc3cc(OC)ccc23)CN1C(=O)[C@@H](NC(=O)CCC(=O)O)C(C)(C)C)C(=O)NS(=O)(=O)C1CC1` (stereo partly drawn) [Compound 100, N-{1S-[2S-(1R-cyclopropanesulfonylaminocarbonyl-2S-vinyl-cyclopropylcarbamoyl)-4R-(7-methoxy-2-phenyl-quinolin-4-yloxy)-pyrrolidine-1-carbonyl]-2,2-dimethyl-propyl}-succinamic acid], the EC50 in experiment [1] was below 500 nM. Besides, in experiment [2], the IC50 was below 50 nM.

Take `C=C[C@@H]1C[C@]1(NC(=O)C1C[C@@H](Oc2cc(-c3ccccc3)nc3cc(OC)ccc23)CN1C(=O)[C@@H](NC(=O)C(C)(C)C)C(C)(C)C)C(=O)NS(=O)(=O)C1CC1` (stereo partly drawn) [Compound 101, 1-[2S-(2,2-Dimethylpropionylamino)-3,3-dimethyl-butyryl]-4R-(7-methoxy-2-phenyl-quinolin-4-yloxy)-pyrrolidine-2S-carboxylic acid (1R-cyclo-propanesulfonylaminocarbonyl-2S-vinylcyclopropyl)-amide]: the EC50 in experiment [1] is below 500 nM. The IC50 in experiment [2] was below 50 nM.

Take `C=C[C@@H]1C[C@]1(NC(=O)C1C[C@@H](Oc2cc(-c3ccccc3)nc3cc(OC)ccc23)CN1C(=O)[C@@H](NC(=O)CO)C(C)(C)C)C(=O)NS(=O)(=O)C1CC1` (stereo partly drawn) [Compound 102, 1-[2S-(2-hydroxy-acetylamino)-3,3-dimethyl-butyryl]-4R-(7-methoxy-2-phenyl-quinolin-4-yloxy)-pyrrolidine-2S-carboxylic acid (1R-cyclopropanesulfonylamino-carbonyl-2S-vinyl-cyclopropyl)-amide]: the EC50 in experiment [1] is below 500 nM. For the same compound, the IC50 in experiment [2] was below 50 nM.

In the case of `C=C[C@@H]1C[C@]1(NC(=O)C1C[C@@H](Oc2cc(-c3ccccc3)nc3cc(OC)ccc23)CN1C(=O)[C@@H](NC(=O)CC(C)(C)C)C(C)(C)C)C(=O)NS(=O)(=O)C1CC1` (stereo partly drawn) [Compound 103, 1-[2S-(3,3-Dimethyl-butyrylamino)-3,3-dimethyl-butyryl]-4R-(7-methoxy-2-phenyl-quinolin-4-yloxy)-pyrrolidine-2S-carboxylic acid (1R-cyclopropanesulfonylaminocarbonyl-2S-vinyl-cyclopropyl)amide], the EC50 in experiment [1] was below 50 nM. In addition, the IC50 in experiment [2] was below 50 nM.

Consider `C=C[C@@H]1C[C@]1(NC(=O)C1C[C@@H](Oc2cc(-c3ccccc3)nc3cc(OC)ccc23)CN1C(=O)[C@@H](NC(=O)CC1CC1)C(C)(C)C)C(=O)NS(=O)(=O)C1CC1` (stereo partly drawn) [Compound 104, 1-[2S-(2-cyclopropyl-acetylamino)-3,3-dimethyl-butyryl]-4R-(7-methoxy-2-phenyl-quinolin-4-yloxy)-pyrrolidine-2S-carboxylic acid (1R-cyclopropanesulfonylaminocarbonyl-2S-vinyl-cyclopropyl)-amide], for which the EC50 in experiment [1] is below 50 nM. The IC50 in experiment [2] is below 50 nM.

Consider `C=CC1CC1(NC(=O)C1CC(Oc2cc(-c3ccccc3)nc3cc(OC)ccc23)CN1C(=O)C(NC(=O)C1C2CC1C2)C(C)(C)C)C(=O)NS(=O)(=O)C1CC1` (stereo not drawn) [Compound 105, 1-{2S-[(bicyclo[1.1.1]pentane-2-carbonyl)-amino]-3,3-dimethyl-butyryl}-4R-(7-methoxy-2-phenyl-quinolin-4-yloxy)-pyrrolidine-2S-carboxylic acid (1R-cyclopropanesulfonylaminocarbonyl-2S-vinylcyclopropyl)amide], for which, in experiment [1], the EC50 is below 50 nM. Also, the IC50 in experiment [2] is below 50 nM.

On to `C=C[C@@H]1C[C@]1(NC(=O)C1C[C@@H](Oc2cc(-c3ccccc3)nc3cc(OC)ccc23)CN1C(=O)[C@@H](NC(=O)COC(C)=O)C(C)(C)C)C(=O)NS(=O)(=O)C1CC1` (stereo partly drawn) [Compound 106, acetic acid {1S-[2S-(1R-cyclopropanesulfonylaminocarbonyl-2S-vinyl-cyclopropylcarbamoyl)-4R-(7-methoxy-2-phenyl-quinolin-4-yloxy)-pyrrolidine-1-carbonyl]-2,2-dimethyl-propylcarbamoyl}-methyl ester], for which the EC50 in experiment [1] is below 500 nM. Also, the IC50 in experiment [2] was below 50 nM.

`C=C[C@@H]1C[C@]1(NC(=O)C1C[C@@H](Oc2cc(-c3ccccc3)nc3cc(OC)ccc23)CN1C(=O)[C@@H](NC(=O)COC)C(C)(C)C)C(=O)NS(=O)(=O)C1CC1` (stereo partly drawn) [Compound 107, 1-[2S-(2-methoxy-acetylamino)-3,3-dimethyl-butyryl]-4R-(7-methoxy-2-phenyl-quinolin-4-yloxy)-pyrrolidine-2S-carboxylic acid (1R-cyclopropanesulfonylamino-carbonyl-2S-vinyl-cyclopropyl)-amide]: the EC50 in experiment [1] was below 500 nM. The IC50 in experiment [2] is below 50 nM.

Regarding `C=C[C@@H]1C[C@]1(NC(=O)C1C[C@@H](Oc2cc(-c3ccccc3)nc3cc(OC)ccc23)CN1C(=O)[C@@H](NC(=O)COc1ccc(OC)cc1)C(C)(C)C)C(=O)NS(=O)(=O)C1CC1` (some centres unmarked) [Compound 108], the EC50 in experiment [1] is below 500 nM. Further, the IC50 in experiment [2] is below 50 nM.

As to `C=C[C@@H]1C[C@]1(NC(=O)C1C[C@@H](Oc2cc(-c3ccccc3)nc3cc(OC)ccc23)CN1C(=O)[C@@H](NC(=O)COc1ccc(F)cc1)C(C)(C)C)C(=O)NS(=O)(=O)C1CC1` (stereo partly drawn) [Compound 109, 1-{2S-[2-(4-Fluoro-phenoxy)-acetylamino]-3,3-dimethyl-butyryl}-4R-(7-methoxy-2-phenyl-quinolin-4-yloxy)-pyrrolidine-2S-carboxylic acid (1R-cyclopropanesulfonylaminocarbonyl-2S-vinylcyclopropyl)-amide], in experiment [1], the EC50 is below 500 nM. In experiment [2], the IC50 was below 50 nM.

On to `C=C[C@@H]1C[C@]1(NC(=O)C1C[C@@H](Oc2cc(-c3ccccc3)nc3cc(OC)ccc23)CN1C(=O)[C@@H](NC(=O)c1ccco1)C(C)(C)C)C(=O)NS(=O)(=O)C1CC1` (stereo partly drawn) [Compound 110, 1-{2S-[(furan-2-carbonyl)-amino]-3,3-dimethyl-butyryl}-4R-(7-methoxy-2-phenyl-quinolin-4-yloxy)-pyrrolidine-2S-carboxylic acid (1R-cyclopropanesulfonylaminocarbonyl-2S-vinyl-cyclopropyl)-amide], for which, in experiment [1], the EC50 is below 500 nM. Also, in experiment [2], the IC50 was below 50 nM.
